Measured values as given in patent publication US10426766B2, “Crystalline forms of an 8-azabicyclo[3.2.1]octane compound” (THERAVANCE BIOPHARMA R&D IP, LLC, priority 2007, dated 2019).
Where a name gives a salt, the structure may show the parent alone.

Key:
[1] = biological target: T1, human mu opioid receptor (Homo sapiens, UniProt P35372); test: Radioligand binding assay on human mu opioid receptor ([3H]-Diprenorphine displacement, CHO-K1 membranes); details: [3H]-Diprenorphine at 0.5 nM
[2] = system: loperamide-induced delayed gastric emptying; test: Rat gastric emptying assay (reversal of loperamide-induced delayed gastric emptying); assay type: in vivo; details: administered orally, loperamide 1 mg/kg s.c.
Protocol: In this assay the efficacy of test compounds was evaluated in a model of gastrointestinal transit, which evaluates peripheral activity. This study was approved by the Institutional Animal Care and Use Committee at […]. and conformed to the Guide for the Care and Use of Laboratory Animals published by the National Academy of Sciences (©1996). Test compounds were evaluated in the rat gastric emptying assay to determine their ability to reverse loperamide-induced delayed gastric emptying. Rats were fasted up overnight prior to administration of test compounds or vehicle by intravenous, subcutaneous, intramuscular or oral routes of administration at doses ranging from 0.001 to about 30 milligrams/kilogram (mg/kg). The administration of test compound was followed by subcutaneous administration of loperamide at a dose of 1 mg/kg or vehicle. […] Gastric weight was then determined after removal of the ligatures. Data was analyzed using the GraphPad Prism Software package (GraphPad Software, Inc., San Diego, Calif.). Percent reversal curves were constructed by non-linear regression analysis using the sigmoidal dose response (variable slope) model and best-fit ID50 values were calculated. […]

[3] = biological target: T1, human mu opioid receptor; test: biochemical; details: read-out: intrinsic activity (IA)
[4] = Dynamic moisture sorption assessment; assay type: physicochemical
Protocol: Dynamic moisture sorption (DMS) assessment was performed at 25° C. using a VTI atmospheric microbalance, SGA-100 system (VTI Corp., Hialeah, Fla. 33016). […] A typical DMS analysis consisted of three scans: ambient to 2% relative humidity (RH), 2% RH to 90% RH, 90% RH to 5% RH at a scan rate of 5% RH/step. The mass was measured every two minutes and the RH was changed to the next value (±5% RH) when the mass of the sample was stable to within 0.02% for 5 consecutive points. Representative DMS traces for samples of a crystalline sulfate salt and of a crystalline hydrate of a sulfate salt of compound 1 are shown in FIGS. 3 and 6, respectively.

[5] = Solid state stability assessment; assay type: physicochemical; details: for changes in DSC, TGA, XRPD results after storage: 4 weeks storage at elevated temperature and humidity
Protocol: Samples of the sulfate salt of the invention were stored in multiple open glass vials at 20° C. and 60% relative humidity (RH) and at 40° C. and 75% RH. At specific intervals, the contents of a representative vial was removed and analyzed by DSC, TGA, PXRD, and by HPLC for chemical purity. […] The chemical purity of the stored samples by HPLC was unchanged at 99.7%.

[6] = system: motility of the gastrointestinal (GI) tract; test: Animal models of gastrointestinal motility; assay type: in vivo

T1 sequence (P35372 whole entry): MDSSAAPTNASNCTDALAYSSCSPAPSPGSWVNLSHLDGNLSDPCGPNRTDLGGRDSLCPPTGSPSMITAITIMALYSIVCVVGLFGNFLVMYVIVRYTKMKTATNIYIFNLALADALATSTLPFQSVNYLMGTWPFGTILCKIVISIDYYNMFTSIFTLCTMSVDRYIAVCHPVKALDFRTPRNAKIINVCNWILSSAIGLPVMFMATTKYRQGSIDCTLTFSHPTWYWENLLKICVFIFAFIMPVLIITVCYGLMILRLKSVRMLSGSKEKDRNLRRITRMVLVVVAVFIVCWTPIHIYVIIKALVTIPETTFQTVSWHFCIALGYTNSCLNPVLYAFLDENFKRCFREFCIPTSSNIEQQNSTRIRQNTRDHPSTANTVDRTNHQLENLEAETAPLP

| Structure (SMILES) | Ki [1] | ID50, dose required for 50% reversal of the effects of loperamide [2] | Emax [3] | weight change/gain on moisture sorption (hygroscopicity) ([4]; 2% to 90% relative humidity at room temperature) | deliquescence ([4]; up to about 90% relative humidity at room temperature) | changes in DSC, TGA, XRPD results after storage ([5]; listed as crystalline sulfate salt of compound 1) | changes in DSC, TGA, XRPD results after storage ([5]; listed as sulfate salt of the invention) | chemical purity of the stored samples by HPLC ([5]; 4 weeks storage, open vials, 20° C./60% RH and 40° C./75% RH) | chemical degradation by HPLC ([5]; storage for 4 weeks at 40° C. and 75% relative humidity) | effect on motility of the gastrointestinal tract [6] |
| --- | --- | --- | --- | --- | --- | --- | --- | --- | --- | --- |
| NC(=O)c1cccc(C2CC3CCC(C2)N3CCN(CC2CCCCC2)C(=O)[C@@H](O)CO)c1 (stereo partly drawn) [sulfate salt of compound 1, 3-endo-(8-{2-[cyclohexylmethyl-((S)-2,3-dihydroxy-propionyl)amino]ethyl}-8-aza-bicyclo[3.2.1]oct-3-yl)benzamide sulfate] | 0.126 nM | 0.26 mg/kg | -5% | less than 0.3% | neither the crystalline sulfate salt of the invention nor the hydrate thereof is deliquescent | no detectable changes | no detectable change | 99.7% | no chemical degradation | – |
| NC(=O)c1cccc(C2CC3CCC(C2)N3CCN(CC2CCCCC2)C(=O)[C@@H](O)CO)c1 (stereo partly drawn) [compound 1, 3-endo-(8-{2-[cyclohexylmethyl-((S)-2,3-dihydroxy-propionyl)amino]ethyl}-8-aza-bicyclo[3.2.1]oct-3-yl)benzamide] | – | – | – | – | – | – | – | – | – | increase motility of the gastrointestinal (GI) tract |
